Experimental data reported in patent US10208210B2, “Hydrophilic oil repellent and production method of same, surface coating material, coating film, resin composition, oil-water separation filter material, and porous body” (MITSUBISHI MATERIALS CORPORATION, priority 2014, dated 2019).

Assay: Solubility of the compound in water at room temperature
Assay type: physicochemical
Conditions: room temperature (25° C.)
Method: 23.5 g of perfluoro(3-dibutylaminopropionic acid) was neutralized with 1.5 g of calcium hydroxide in a methanol/water mixed solution. The precipitated crystals were separated by filtration, and dried at 100° C., whereby 23.5 g of perfluoro(3-dibutylaminopropionic acid) calcium represented by the following formula (376) was obtained (yield of 97%). The solubility of the present compound in water at room temperature (25° C.) was 2 [g/100 g-H2O].
15.0 g of perfluoro(3-dibutylaminopropionic acid) obtained in the same manner as in Synthesis Example 1 was neutralized with 1.2 g of magnesium hydroxide in a methanol/water mixed solution. Next, the precipitated crystals were separated by filtration, and by extracting with methanol, a magnesium salt was obtained. The methanol was distilled off, whereby 14.4 g of perfluoro(3-dibutylaminopropionic acid) magnesium represented by the following formula (379) was obtained (yield of 94%). The solubility of the present compound in water at room temperature was 0.009 [g/100 g-H2O].
15.0 g of perfluoro(3-dibutylaminopropionic acid) obtained in the same manner as in Synthesis Example 1 was neutralized with 4.0 g of barium hydroxide octahydrate in a methanol/water mixed solution. […]

| Compound | solubility of the present compound in water [g/100 g-H2O] |
| --- | --- |
| O=C(O)C(F)(F)C(F)(F)N(C(F)(F)C(F)(F)C(F)(F)C(F)(F)F)C(F)(F)C(F)(F)C(F)(F)C(F)(F)F.[Mg] [Synthesis Example 4, perfluoro(3-dibutylaminopropionic acid) magnesium] | 0.009 |
| O=C(O)C(F)(F)C(F)(F)N(C(F)(F)C(F)(F)C(F)(F)C(F)(F)F)C(F)(F)C(F)(F)C(F)(F)C(F)(F)F.[Ba] [Synthesis Example 5, perfluoro(3-dibutylaminopropionic acid) barium] | 0.04 |
